# Literature values, collected in patent US20010046548A1, “Anticholesterolemic edible oil” (priority 1998, published 2001).
SMILES,absorption (in vivo),"fraction absorbed (ingested, small intestine)"
CC[C@H](CC[C@@H](C)[C@H]1CC[C@H]2[C@@H]3CC[C@H]4C[C@@H](O)CC[C@]4(C)[C@H]3CC[C@]12C)C(C)C [sitostanol],completely unabsorbed,
CC[C@H](CC[C@@H](C)[C@H]1CC[C@H]2[C@@H]3CC=C4C[C@@H](O)CC[C@]4(C)[C@H]3CC[C@]12C)C(C)C [beta-sitosterol],,less than 5%
